Assay results taken from patent publication US10981932B2, “Macrocyclic indole derivatives” (Bayer Aktiengesellschaft, priority 2016, dated 2021).
“And” between values parts separate entries of the source, which are not always exact repeats. Equal values may be shown once. Read-outs that look alike come from different tables or passages of the source.

Columns and labels:
[1] = test system: SUDHL10; assay: Induction of caspase-3/7 activity (Caspase-Glo 3/7), SUDHL10; assay type: cell-based; conditions: caspase-3/7 induction, SUDHL10 cells, 3 h treatment, median
Protocol: (§1) Induction of Caspase-317 Activity Upon Treatment of Cells with Selected Compounds
(§2) The BH3-domain of MCL-1 sequesters pro-apoptotic proteins, thereby inhibiting apoptosis. In contrast, MCL-1 inhibitors are expected to antagonize this effect leading to an increase in apoptosis, which can be determined by measuring the activity of caspase-3/7.
(§3) The activity of caspase-3/7 was determined in DLBCL (Diffuse large B-cell lymphoma) cell lines (SUDHL5 and SUDHL10) upon treatment with different compounds, using the Caspase-Glo® 3/7 reagent from Promega (G8092).
(§4) Rim wells were excluded. The cells were incubated for 3 h hours in a humidified incubator at 37° C.
(§5) For the evaluation of the results, the background measured with “medium-only” was subtracted from all other values. […] The Bella DRC Master Sheet was used to calculate EC50s, with fixed C0=1 and CI=plateaulmax induction for the reference compound.

[2] = test system: SUDHL5; assay: Induction of caspase-3/7 activity (Caspase-Glo 3/7), SUDHL5; assay type: cell-based; conditions: caspase-3/7 induction, SUDHL5 cells, 3 h treatment, median
Protocol: as §1, §2, §3, §4, §5

[3] = test system: SUDHL10; assay: Induction of cytotoxicity (CellTiter-Glo, 5 h), SUDHL10
[4] = test system: SUDHL5; assay: Induction of cytotoxicity (CellTiter-Glo, 5 h), SUDHL5
[5] = target: MCL-1 (Homo sapiens, UniProt Q07820); assay: Protein-protein interaction assay MCL-1/Noxa BH3 peptide (MCL-1 assay), TR-FRET; assay type: binding; conditions: MBP-MCL-1 / Noxa BH3-derived peptide, median
Protocol: Protein-Protein Interaction Assay: MCL-1/Noxa BH3 Peptide (MCL-1 Assay) […]
In the assay 11 different concentrations of each compound (0.1 nM, 0.33 nM, 1.1 nM, 3.8 nM, 13 nM, 44 nM, 0.15 μM, 0.51 μM, 1.7 μM, 5.9 μM and 20 μM) were typically measured as duplicates in the same microtiter plate. For that, 100-fold concentrated DMSO solutions were prepared by serial dilutions (1:3.4) of a 2 mM stock solution in a clear, 384-well microtiter plate (Greiner Bio-One, Frickenhausen, Germany). From there, 50 ni were transferred in a dark test plate (Greiner Bio-One, Frickenhausen, Germany). The assay was initiated by addition of 2 μl of a 2.5-fold concentrated MBP-MCL-1 solution (usually for a 1 nM end concentration in 5 μl reaction volume) in aqueous assay buffer [50 mM Tris/HCl pH 7, 100 mM sodium chloride (NaCl), 50 mM potassium fluoride (KF), 0.005% Tween-20, 2 mM DTT, 0.1% bovine gamma globulin (BGG)] to the compounds in the assay plate. This was followed by a 10-minute incubation step at 22° C. for pre-equilibration of the putative complex between MBP-MCL-1 and the compounds. After that.
The mixture was incubated in the dark for one hour at 22° C. and then overnight at 4° C. The formation of MCL-1/Noxa complexes was determined by measuring the resonance energy transfer of the anti-MBP- Eu-cryptate antibody to the streptavidin-XL665 present in the reaction. For that purpose, the fluorescence emission at 620 nm and 665 nm after excitation at 330-350 nm was measured in a TR-FRET measuring instrument, for instance a Rubystar or a Pherastar (both from BMG Lab Technologies, Offenburg, Germany) or a Viewlux (Perkin-Elmer). The ratio of the emission at 665 nm and at 622 nm was used as indicator of the amount of MCL-1/NOXA complexes present.
The resulting data (ratio) were normalized, taking 0% inhibition as the mean value of control measurements (usually 32 data points) where all reagents were included. In this case 50 nl DMSO were used instead of compounds. A 100% inhibition corresponded to the mean value of control measurements (usually 32 data points) where all reagents except MCL-1 were included. IC50 values were determined by regression analysis based on a 4 parameter equation (minimum, maximum, IC50, Hill; Y=Max+(Min−Max)/(1+(X/IC50)^Hill) using the Screener Software (Genedata).

[6] = test system: SUDHL5; assay: Anti-proliferative effect (CellTiter-Glo, 72 h), SUDHL5; assay type: cell-based; conditions: Homo sapiens, SU-DHL-5, 72 h, SUDHL5 cells, antiproliferation, 72 h incubation, median, read-out: Antiproli SUDHL5 [M] (median)
Protocol: (§6) Assessment of the Anti-Proliferative Effect of Compounds in Different Cell Lines
(§7) The impact of compounds on the proliferation of different cell lines was assessed using the CellTiter-Glo® Luminescent Cell Viability reagent from Promega (G7573). Of note, SUDHL10 and SUDHL5 (DLBCL), NCI-H929 (Multiple Myeloma), A2780 (ovarian carcinoma) as well as MV-4-11(AML) cells are sensitive to MCL-1 inhibition.
(§8) In parallel, cells were plated in a reference (day 0) plate for time zero determination.
(§9) Rim wells were excluded. The cells were incubated for 72 h hours in a humidified incubator at 37° C. The day 0 plate was measured by adding 30 μl/well of CTG solution (CellTiter-Glo® Luminescent Cell Viability reagent, Promega G7573) to time zero wells in the reference plate followed by a 10 minutes incubation and luminescence reading at 0.1 ms, using the PHERAstar FS microplate reader (BMG Labtech).
(§10) After 72 h incubation, the treated plates were measured in the same way as the day 0 plate mentioned above.

[7] = test system: A2780; assay: Anti-proliferative effect (CellTiter-Glo, 72 h), A2780; assay type: cell-based; conditions: Homo sapiens, A2780, 72 h, A2780 cells, median, read-out: IC50 antiproliferation assay A2780 [M] (median)
Protocol: as §6, §7, §8, §9, §10

[8] = Homo sapiens, SU-DHL10, 5 h, read-out: Cytotox SUDHL10 [M] (median), SUDHL10 cells, cytotoxicity induction, CellTiter-Glo, 5 h incubation, median
[9] = Homo sapiens, SU-DHL-5, 5 h, read-out: Cytotox SUDHL5 [M] (median), SUDHL5 cells, cytotoxicity induction, CellTiter-Glo, 5 h incubation, median
[10] = read-out: Cytotox SUDHL10 [M] (median), SUDHL10 cells, cytotoxicity induction, CellTiter-Glo, 5 h incubation, median

Chain of MCL-1 (Q07820 whole entry): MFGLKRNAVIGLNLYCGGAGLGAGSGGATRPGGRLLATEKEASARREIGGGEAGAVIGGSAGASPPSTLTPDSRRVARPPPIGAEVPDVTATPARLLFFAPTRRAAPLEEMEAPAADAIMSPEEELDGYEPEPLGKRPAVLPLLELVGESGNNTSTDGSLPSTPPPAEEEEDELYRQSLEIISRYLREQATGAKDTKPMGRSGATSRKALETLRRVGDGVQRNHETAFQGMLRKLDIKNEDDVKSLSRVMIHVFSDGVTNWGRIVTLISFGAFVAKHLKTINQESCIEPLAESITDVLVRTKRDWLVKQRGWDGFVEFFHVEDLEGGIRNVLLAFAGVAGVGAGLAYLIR

| SMILES | EC50 ([1]; Homo sapiens, SU-DHL10, 3 h) [µM] | EC50 ([2]; Homo sapiens, SU-DHL-5, 3 h) [µM] | IC50 [5] [µM] | IC50 [7] [M] | EC50 [1] [µM] | EC50 [2] | IC50 [3, 8] [M] | IC50 [4, 9] [M] | IC50 [6] [M] | IC50 [3, 10] | IC50 ([4]; read-out: Cytotox SUDHL5 [M] (median), SUDHL5 cells, cytotoxicity induction, CellTiter-Glo, 5 h incubation, median) |
| --- | --- | --- | --- | --- | --- | --- | --- | --- | --- | --- | --- |
| CC(=O)N1CCN(c2ccc(OCc3nn(C)c4c3-c3cccc5c(CCCOc6cccc7ccccc67)c(C(=O)O)n(c35)CC=CCOC4)cc2)CC1 (racemic) [Example 1-1, (rac)-(E/Z)-3-{[4-(4-acetylpiperazin-1-yl)phenoxy]methyl}-1-methyl-7-[3-(naphthalen-1-yloxy)propyl]-1,10,13,25-tetrahydropyrazolo[4′,3′:9,10][1,6]oxazacycloundecino[8,7,6-hi]indole-8-carboxylic Acid] | 22.5 | 14.8 | – | – | – | – | > 3.3e-05 | > 3.3e-05 | – | – | – |
| Cn1nc(COc2ccc(N3CCN(C(=O)OC(C)(C)C)CC3)cc2)c2c1COCCCCn1c(C(=O)O)c(CCCOc3cccc4ccccc34)c3cccc-2c31 (racemic) [Example 1-6, (rac)-3-({4-[4-(tert-butoxycarbonyl)piperazin-1-yl]phenoxy}methyl)-1-methyl-7-[3-(naphthalen-1-yloxy)propyl]-1,10,11,12,13,15-hexahydropyrazolo[4′,3′:9,10][1,6]oxazacycloundecino[8,7,6-hi]indole-8-carboxylic Acid] | 11.9 | 7.67 | 0.0187 | – | – | – | > 3.3e-05 | 1.15e-05 | 1.37e-06 | – | – |
| Cn1nc(COCc2ccccc2)c2c1COCC=CCn1c(C(=O)O)c(CCCOc3cccc4ccccc34)c3cccc-2c31 (racemic) [Example 1-94, (rac)-(E/Z)-3-[(benzyloxy)methyl]-1-methyl-7-[3-(naphthalen-1-yloxy)propyl]-1,10,13,15-tetrahydropyrazolo[4′,3′9,10][,6]oxazacycloundecino[8,7,6-hi]indole-8-carboxylic Acid] | > 33 | > 33 | 0.141 | – | – | – | > 3.3e-05 | > 3.3e-05 | – | – | – |
| Cn1nc(COc2ccccc2)c2c1COCCCCn1c(C(=O)O)c(CCCOc3cccc4ccccc34)c3cccc-2c31 (single isomer, unassigned) [Example 1-79, 1-methyl-7-[3-(naphthalen-1-yloxy)propyl]-3-(phenoxymethyl)-1,10,11,12,13,15-hexahydropyrazolo[4′3′:9,10][1,6]oxazacycloundecino[8,7,6-hi]indole-8-carboxylic Acid] | 20.7 | > 33 | 0.656 | – | – | – | 3.09e-05 | > 3.3e-05 | – | – | – |
| Cc1nn(C)c2c1-c1cccc3c(CCCOc4cccc5ccccc45)c(C(=O)O)n(c13)CCCN(c1ccc(N3CCN(S(=O)(=O)N(C)C)CC3)cc1)C2 (single isomer, unassigned; enantiomer 2) [Example 1-107, 7-{4-[4-(Dimethylsulfamoyl)piperazin-1-yl]phenyl}-9,11-dimethyl-1-[3-(1-naphthyloxy)propyl]-4,5,6,7,8,9-hexahydropyrazolo[3′,4′:7,8][1,5]diazecino[9,10,1-hi]indole-2-carboxylic Acid (Enantiomer 2)] | – | – | 0.0897 | – | – | 19.4 µM and > 33 µM | – | – | – | 2.89e-05 M and > 3.3e-05 M | – |

The next lines start with results.

| EC50 ([1]; Homo sapiens, SU-DHL10, 3 h) [µM] | EC50 ([2]; Homo sapiens, SU-DHL-5, 3 h) [µM] | IC50 [5] [µM] | IC50 [7] [M] | EC50 [1] [µM] | EC50 [2] | SMILES | IC50 [3, 8] [M] | IC50 [4, 9] [M] | IC50 [6] [M] | IC50 [3, 10] | IC50 ([4]; read-out: Cytotox SUDHL5 [M] (median), SUDHL5 cells, cytotoxicity induction, CellTiter-Glo, 5 h incubation, median) |
| --- | --- | --- | --- | --- | --- | --- | --- | --- | --- | --- | --- |
| > 33 | > 33 | 0.0706 | – | – | – | Cn1nc(COc2ccc(N3CCNCC3)cc2)c2c1COCC=CCn1c(C(=O)O)c(CCCOc3cccc4ccccc34)c3cccc-2c31 (racemic) [Example 1-2, (rac)-(E/Z)-1-methyl-7-[3-(naphthalen-1-yloxy)propyl]-3-{[4-(piperazin-1-yl)phenoxy]methyl}-1,10,13,15-tetrahydropyrazolo[4′,3′:9,10][1,6]oxazacycloundecino[8,7,6-hi]indole-8-carboxylic Acid] | > 3.3e-05 | > 3.3e-05 | – | – | – |
| 31.8 | > 33 | 0.0749 | – | – | – | CN1CCCn2c(C(=O)O)c(CCCOc3cccc4ccccc34)c3cccc(c32)-c2c(COCc3ccccc3)nn(C)c2C1 (racemic) [Example 1-93, (rac)-11-[(benzyloxy)methyl]-7,9-dimethyl-1-[3-(naphthalen-1-yloxy)propyl]-4,5,6,7,8,9-hexahydropyrazolo[3′,4′:7,8][1,5]diazecino[9,10,1-hi]indole-2-carboxylic Acid] | > 3.3e-05 | > 3.3e-05 | – | – | – |
| > 33 | 14.1 | 0.0131 | 1.96e-05 | – | – | Cn1nc2c(c1CN1CCOCC1)-c1cccc3c(CCCOc4cccc5ccccc45)c(C(=O)O)n(c13)CCCCOC2 (racemic) [Example 078, (rac)-2-Methyl-3-(morpholin-4-ylmethyl)-7-[3-(naphthalen-1-yloxy)propyl]-2,10,11,12,13,15-hexahydropyrazolo[4′,3′:9,10][1,6]oxazacycloundecino[8,7,6-hi]indole-8-carboxylic Acid] | – | – | – | – | – |
| – | – | 0.0501 | – | > 33 | > 33 µM | Cn1nc(COc2ccccc2)c2c1COCCCCn1c(C(=O)O)c(CCCOc3cccc4ccccc34)c3cccc-2c31 (single isomer, unassigned) [Example 1-80, 1-methyl-7-[3-(naphthalen-1-yloxy)propyl]-3-(phenoxymethyl)-1,10,11,12,13,15-hexahydropyrazolo[4′,3′:9,10][1,6]oxazacycloundecino[8,7,6-hi]indole-8-carboxylic Acid] | – | – | – | > 3.3e-05 M | > 3.3e-05 |
| – | – | 0.00145 | 2.28e-05 | 3.54 | 1.32 µM | Cc1ccc2c(CCCOc3cccc4ccccc34)c(C(=O)O)n3c2c1-c1c(nn(C)c1C)COCCCC3 (single isomer, unassigned; enantiomer 1) [Example 076, 2,3,4-trimethyl-7-[3-(naphthalen-1-yloxy)propyl]-2,10,11,12,13,15-hexahydropyrazolo[4′,3′:9,10][1,6]oxazacycloundecino[8,7,6-hi]indole-8-carboxylic Acid (Enantiomer 1)] | – | – | – | – | – |
